Results: the NIST ThermoML archive (doi:10.1021/je025657+)
“And” between values parts separate entries of the source, which are not always exact repeats. Equal entries are not always repeated.

COC(F)(F)C(F)(F)F [methyl pentafluoroethyl ether]
Conditions | mass density [kg/m3]
330 K, 2009.1 kPa, Liquid | 1174.81
330 K, 2033.5 kPa, Liquid | 1173.24
330 K, 2499.3 kPa, Liquid | 1178.46
330 K, 3014.1 kPa, Liquid | 1182.15
330 K, 3040.4 kPa, Liquid | 1180.5
330 K, 3527.6 kPa, Liquid | 1185.73
330 K, 4007.5 kPa, Liquid | 1188.95
330 K, 4054 kPa, Liquid | 1187.37
330 K, 4522.8 kPa, Liquid | 1192.32
330 K, 5044.3 kPa, Liquid | 1195.65
330 K, 5095.2 kPa, Liquid | 1194.02
330 K, 5526.8 kPa, Liquid | 1198.64
330 K, 6004.2 kPa, Liquid | 1201.54
330 K, 6121.5 kPa, Liquid | 1200.18
330 K, 6544.9 kPa, Liquid | 1204.73
330 K, 7006.4 kPa, Liquid | 1207.37
330 K, 7184 kPa, Liquid | 1206.23
340 K, 72.2 kPa, Gas | 3.93
340 K, 97.1 kPa, Gas | 5.22
340 K, 106 kPa, Gas | 5.76
340 K, 154.8 kPa, Gas | 8.59
340 K, 198.1 kPa, Gas | 11.09
340 K, 224.8 kPa, Gas | 12.57
340 K, 295.9 kPa, Gas | 17.05
340 K, 323.2 kPa, Gas | 18.7
340 K, 396.6 kPa, Gas | 23.61
340 K, 495.8 kPa, Gas | 30.46
340 K, 596 kPa, Gas | 38.08
340 K, 597.2 kPa, Gas | 38.04
340 K, 707 kPa, Liquid | 1124.67
340 K, 722.8 kPa, Liquid | 1124.82
340 K, 1026.7 kPa, Liquid | 1129.54
340 K, 1053.7 kPa, Liquid | 1128.14
340 K, 1524.7 kPa, Liquid | 1134.41
340 K, 1999.2 kPa, Liquid | 1137.11
340 K, 2020.3 kPa, Liquid | 1139.04
340 K, 2516 kPa, Liquid | 1143.49
340 K, 3002.4 kPa, Liquid | 1147.7
340 K, 3017 kPa, Liquid | 1145.96
340 K, 3529.7 kPa, Liquid | 1152.07
340 K, 3993.9 kPa, Liquid | 1155.78
340 K, 4072.4 kPa, Liquid | 1154.47
340 K, 4525.8 kPa, Liquid | 1159.9
340 K, 5046.6 kPa, Liquid | 1163.8
340 K, 5093 kPa, Liquid | 1162.13
340 K, 5487.3 kPa, Liquid | 1166.99
340 K, 6030.7 kPa, Liquid | 1170.83
340 K, 6115.2 kPa, Liquid | 1169.4
340 K, 6527.2 kPa, Liquid | 1174.25
340 K, 7001.9 kPa, Liquid | 1177.33
340 K, 7160.8 kPa, Liquid | 1176.36
350 K, 71.4 kPa, Gas | 3.8
350 K, 104.7 kPa, Gas | 5.6
350 K, 129.8 kPa, Gas | 6.86
350 K, 152.8 kPa, Gas | 8.19
350 K, 222 kPa, Gas | 12.14
350 K, 275 kPa, Gas | 15.14
350 K, 319.9 kPa, Gas | 17.93
350 K, 395 kPa, Gas | 22.4
350 K, 455.2 kPa, Gas | 26.4
350 K, 560.7 kPa, Gas | 33.51
350 K, 777.4 kPa, Gas | 50.08
350 K, 799.2 kPa, Gas | 52.12
350 K, 902.4 kPa, Liquid | 1084.92
350 K, 933 kPa, Liquid | 1085.29
350 K, 1008.2 kPa, Liquid | 1087.64
350 K, 1049.9 kPa, Liquid | 1086.78
350 K, 1470.3 kPa, Liquid | 1093.45
350 K, 2013.5 kPa, Liquid | 1099.88
350 K, 2056.5 kPa, Liquid | 1098.92
350 K, 2517.3 kPa, Liquid | 1105.5
350 K, 3024.3 kPa, Liquid | 1110.87
350 K, 3061.7 kPa, Liquid | 1109.59
350 K, 3474.5 kPa, Liquid | 1115.43
350 K, 4005.1 kPa, Liquid | 1120.6
350 K, 4100.2 kPa, Liquid | 1119.85
350 K, 4481.5 kPa, Liquid | 1124.97
350 K, 4979.5 kPa, Liquid | 1129.41
350 K, 5116.8 kPa, Liquid | 1128.93
350 K, 5469.1 kPa, Liquid | 1133.62
350 K, 5973.9 kPa, Liquid | 1137.8
350 K, 6125.5 kPa, Liquid | 1137.3
350 K, 6531.4 kPa, Liquid | 1142.27
350 K, 6996.6 kPa, Liquid | 1145.86
350 K, 7196.9 kPa, Liquid | 1145.6
360 K, 45.3 kPa, Gas | 2.31
360 K, 98.2 kPa, Gas | 5.11
360 K, 137.2 kPa, Gas | 7.1
360 K, 200.1 kPa, Gas | 10.49
360 K, 231.4 kPa, Gas | 12.2
360 K, 289.8 kPa, Gas | 15.49
360 K, 334.5 kPa, Gas | 18.07
360 K, 415.3 kPa, Gas | 22.84
360 K, 477.9 kPa, Gas | 26.77
360 K, 586.1 kPa, Gas | 33.71
360 K, 670.7 kPa, Gas | 39.54
360 K, 807.9 kPa, Gas | 49.64
360 K, 915.4 kPa, Gas | 58.53
360 K, 990.4 kPa, Gas | 65.14
360 K, 1139.7 kPa, Liquid | 1041.29
360 K, 1228 kPa, Liquid | 1042.77
360 K, 1529.8 kPa, Liquid | 1049.05
360 K, 2003.3 kPa, Liquid | 1056.42
360 K, 2053.3 kPa, Liquid | 1055.56
360 K, 2463 kPa, Liquid | 1063.09
360 K, 2984.8 kPa, Liquid | 1070.14
360 K, 3048.1 kPa, Liquid | 1069.38
360 K, 3506.1 kPa, Liquid | 1076.76
360 K, 4021.5 kPa, Liquid | 1082.91
360 K, 4078.7 kPa, Liquid | 1081.81
360 K, 4467.5 kPa, Liquid | 1087.96
360 K, 5021.2 kPa, Liquid | 1093.94
360 K, 5093.9 kPa, Liquid | 1092.92
360 K, 5527.2 kPa, Liquid | 1099.14
360 K, 5980.2 kPa, Liquid | 1103.61
360 K, 6147.8 kPa, Liquid | 1103.45
360 K, 6519.9 kPa, Liquid | 1108.71
360 K, 6997.3 kPa, Liquid | 1113.07
360 K, 7245.1 kPa, Liquid | 1113.38
370 K, 71.6 kPa, Gas | 3.44
370 K, 105.5 kPa, Gas | 5.15
370 K, 120.9 kPa, Gas | 6.04
370 K, 154.8 kPa, Gas | 7.64
370 K, 176.6 kPa, Gas | 8.92
370 K, 226.2 kPa, Gas | 11.41
370 K, 256.7 kPa, Gas | 13.19
370 K, 328.5 kPa, Gas | 16.95
370 K, 370 kPa, Gas | 19.53
370 K, 471.8 kPa, Gas | 25.21
370 K, 527.2 kPa, Gas | 28.67
370 K, 666.8 kPa, Gas | 37.39
370 K, 737.9 kPa, Gas | 42.35
370 K, 920.6 kPa, Gas | 55.26
370 K, 1005.3 kPa, Gas | 62.34
370 K, 1205.2 kPa, Gas | 80.41
370 K, 1224.5 kPa, Gas | 81.87
370 K, 1277.5 kPa, Gas | 87.49
370 K, 1278.1 kPa, Gas | 88.01
370 K, 1404.3 kPa, Liquid | 992.2
370 K, 1431.7 kPa, Liquid | 992.85
370 K, 1520 kPa, Liquid | 995.4
370 K, 1998.7 kPa, Liquid | 1006.05
370 K, 2031.8 kPa, Liquid | 1006.03
370 K, 2519.7 kPa, Liquid | 1016.39
370 K, 3015.7 kPa, Liquid | 1025.26
370 K, 3042 kPa, Liquid | 1024.99
370 K, 3496.9 kPa, Liquid | 1033.2
370 K, 4012.1 kPa, Liquid | 1041.13
370 K, 4077.7 kPa, Liquid | 1041.14
370 K, 4515.8 kPa, Liquid | 1048.28
370 K, 5031.9 kPa, Liquid | 1055.14
370 K, 5127.4 kPa, Liquid | 1055.31
370 K, 5527.5 kPa, Liquid | 1061.36
370 K, 5982.5 kPa, Liquid | 1066.79
370 K, 6112.9 kPa, Liquid | 1067.19
370 K, 6526.3 kPa, Liquid | 1072.95
370 K, 6886.1 kPa, Liquid | 1076.82
370 K, 7213.4 kPa, Liquid | 1079.13
380 K, 74.8 kPa, Gas | 3.57
380 K, 110.1 kPa, Gas | 5.3
380 K, 161.5 kPa, Gas | 7.87
380 K, 235.9 kPa, Gas | 11.67
380 K, 268.9 kPa, Gas | 13.32
380 K, 342.4 kPa, Gas | 17.25
380 K, 408.5 kPa, Gas | 20.83
380 K, 492.2 kPa, Gas | 25.55
380 K, 502.4 kPa, Gas | 26.12
380 K, 602.7 kPa, Gas | 31.98
380 K, 697.5 kPa, Gas | 37.81
380 K, 703.9 kPa, Gas | 38.16
380 K, 804.6 kPa, Gas | 44.65
380 K, 899.8 kPa, Gas | 51.1
380 K, 969.2 kPa, Gas | 56.06
380 K, 1019.1 kPa, Gas | 59.71
380 K, 1101.8 kPa, Gas | 66.08
380 K, 1212.9 kPa, Gas | 75.17
380 K, 1295.3 kPa, Gas | 82.53
380 K, 1299.2 kPa, Gas | 82.86
380 K, 1417.2 kPa, Gas | 94.38
380 K, 1486.5 kPa, Gas | 101.79
380 K, 1486.8 kPa, Gas | 101.8
380 K, 1499.7 kPa, Gas | 103.34
380 K, 1530.9 kPa, Gas | 107.11
380 K, 1744.3 kPa, Liquid | 935.88
380 K, 1763.3 kPa, Liquid | 936.59
380 K, 1785 kPa, Liquid | 937.35
380 K, 1807.8 kPa, Liquid | 938.21
380 K, 2057.3 kPa, Liquid | 946.7
380 K, 2481.3 kPa, Liquid | 959.56
380 K, 2986.2 kPa, Liquid | 972.71
380 K, 3036.6 kPa, Liquid | 973.66
380 K, 3496.2 kPa, Liquid | 984.34
380 K, 4004.9 kPa, Liquid | 994.7
380 K, 4035.7 kPa, Liquid | 994.89
380 K, 4514.5 kPa, Liquid | 1004.14
380 K, 4998.2 kPa, Liquid | 1012.37
380 K, 5093.2 kPa, Liquid | 1013.21
380 K, 5510.3 kPa, Liquid | 1020.45
380 K, 6032.6 kPa, Liquid | 1028.11
380 K, 6103.7 kPa, Liquid | 1028.48
380 K, 6514.1 kPa, Liquid | 1034.76
380 K, 7011.9 kPa, Liquid | 1041.19
380 K, 7127.1 kPa, Liquid | 1041.96

mass density
Conditions | 330 K | 340 K | 350 K | 360 K | 370 K | 380 K
Gas | – | 47.9 kg/m3 | 61.38 kg/m3 | 77.81 kg/m3 | 101.33 kg/m3 | 133.96 kg/m3
Liquid | 1161.46 kg/m3 and 1163.08 kg/m3 | 1124.55 kg/m3 and 1126.1 kg/m3 and 1126.12 kg/m3 | 1084.74 kg/m3 and 1086.06 kg/m3 | 1040.97 kg/m3 and 1042.15 kg/m3 and 1042.21 kg/m3 | 991.98 kg/m3 and 992.32 kg/m3 and 992.42 kg/m3 | 934.86 kg/m3 and 935.87 kg/m3
